Two substances from patent US20240082342A1, “PEPTIDE THERAPEUTICS FOR INCREASING LUNG CELL VIABILITY” (BOARD OF REGENTS, THE UNIVERSITY OF TEXAS SYSTEM, priority 2018, published 2024) can be followed below.

“Also recorded” adds a separate entry of the source.

The subject of one assay is PP2A. As to the kind of experiment: PP2A activity assay in AECs and lung tissues from COPD lungs. The format is cell-based, human. On the procedure:
PP2A Activity Determination and PP2A Inhibitors PP2A activity was determined using the Millipore PP2A activity assay (17-313; Millipore) (Nath S, et al., Am J Respir Cell Mol Biol. 59:695-705, 2018 December).
Determination of protein phosphatase 2A (PP2A) activity. PP2A activity was determined in isolated AECs and lung homogenates using the PP2A activity assay kit (Millipore) (Nath et al, Am J Respir Cell Mol Biol 59:695-705, 2018. doi: 10.1165/rcmb.2018-01730C.)

A further assay has as its system A2Cs of uPA^−/− mice. As to the kind of experiment: Tobacco smoke or repeated bleomycin exposure of uPA-/- mice. Type of assay: in vivo, mouse. On the procedure: To analyze the effect of cigarette smoke, mice were exposed to passive smoke from 40 research cigarettes over a 2-hour period once (2 h) or twice (4 h) daily for 5 days/week for 20 weeks (˜90 mg/m^3 total solid particulates) using a mechanical smoking chamber (Teague Enterprises, Davis, CA). Control mice were exposed to ambient air. At the 18th week, peptide treatment at a dosage of 30 μg/20 g body weight was initiated and continued on a daily basis for the next 14 days. At the end of the experiment, the mice were euthanized and used for the experiments.
To analyze the effect of BLM, mice were exposed to BLM (40 μg/20 g body weight) once per two week for 16 weeks. Control mice were exposed to normal saline. At 14th week the peptide treatment at a dosage of 30 μg/20 g body weight was initiated and continued on a daily basis for the next 14 days. At the end of the experiment, the mice were euthanized and used for the experiments.
To test the effect of chronic TS exposure induced lung injury, these mice were exposed to passive TS from 40 research cigarettes over a 4 h period 5 days/week for 20 weeks (˜90 mg/m3 total solid particulates) using a mechanical smoking chamber (Teague Enterprises, Davis, CA) as described earlier. (Bhandary et al, 2015). Control mice were kept in ambient air. After sixteen weeks of daily passive TS exposure, mice with TS exposure injury were treated with CSP7 at a dosage of 1.5 mg/kg body weight daily 5 days/week for the next four weeks. These mice were continued with daily exposure of 4 h of TS during CSP7 treatment. At the end of the experiment (after 20 weeks of TS exposure), the mice were euthanized, and lungs were utilized for further analyses. To expand the local delivery options of CSP7 to directly treat the damaged lung by air-jet milling for dry powder inhalation (DPI). Mice exposed to TSE were treated with CSP7 using a rotating brush generator for 15 min daily for 7 days. Fourteen days later, BLM mice were subjected to daily inhalation of micronized CSP7 (0.05 mg/kg/d) DP through air-jet-milling for seven consecutive days using a rotating brush exposure system. The rotating brush exposure system gave a consistent minimal chamber concentration of 0.1 mg/L. In order to match dosing of DP inhalation, animal exposure times were adjusted to approximately 15 minutes and an estimated dose of 0.05 mg/kg/d or 1.00 microgram/lung was administered.
To evaluate the effect of CSP7 against chronic BLM-induced PF, the mice were exposed to BLM (40 μg/20 g body weight) once every two weeks for 16 weeks as described elsewhere. (Tiwari et al, 2016). Control mice were exposed to normal saline. Fourteen weeks later the CSP7 at a dosage of 1.5 mg/kg body weight was administered by IP injection and continued daily basis for the next two weeks as described elsewhere. (Tiwari et al, 2016; Shetty et al, 2008b). At the end of the experiment, the mice were euthanized and lung tissues and isolated A2Cs from the extracted lung tissues were used for further analysis.

Assay [1] concerns AECs from human nL exposed to CSE. As to the kind of experiment: Normal lung AECs exposed to TS/CS extract in vitro for 48 h. Type of assay: cell-based. On the procedure:
Primary Airway Epithelial Cells (AECs); Normal, Human (ATCC® PCS-301-010™) and Primary Airway Epithelial Cells; COPD (ATCC® PCS-301-013™) were obtained from the ATCC and cultured in Airway Cell Basal Medium with glutamine, Extract P, HLL Supplement, and AEC Supplement. containing and 1% penicillin-streptomycin. The cells were maintained at 37° C. in a humidified atmosphere at 5% CO2. All media, supplements, and antibiotics were purchased from ATCC.
Research cigarettes 2R4F were purchased from the Tobacco Health Research University of Kentucky (Lexington, KY). TSE extracts were prepared by burning research cigarettes in a side arm flask and the smoke generated was bubbled into phosphate-buffered saline at room temperature through an attached peristaltic pump as described earlier (Bhandary et al PloS One 10: e0123187, 2015) Tiwari et al. Am J Physiol Lung Cell Mol Physiol. 310:L496-506, 2016. An absorbance of 1.0 at 230 nm is considered 100%. TSE extract was filter sterilized by passing it through a 0.2-μm filter.
Preparation of CSE for the treatment of AECs in vitro. Research cigarettes 2R4F were purchased from the Tobacco Health Research, University of Kentucky (Lexington, KY). CSE were prepared by burning research cigarettes in a sidearm flask and the smoke generated was bubbled into phosphate-buffered saline (PBS) at room temperature through an attached peristaltic pump as described earlier (Shetty et al, 2012). An absorbance of 1.0 at 230 nm is considered 100%. CSE was filter sterilized by passing it through a 0.2-μm filter.
CSP7 inhibits MH and cilia dysfunction in AECs exposed to CS extract (CSE). To further confirm the above findings, AECs isolated from human nL were exposed to CSE in vitro for 48 h and analyzed for MUC5AC, HDAC6, FOXA2, FOXA3, SPDEF, acetylated alpha-tubulin, p53, PAI-1 and LC3. […] The changes at protein level allied with corresponding changes at the mRNA levels (FIG. 36B). […] CSE induced co-localization of MUC5AC and HDAC6, and acetylated alpha-tubulin and LC3 were inhibited following treatment with CSP7.

Turning to “WGIDKAFFTTSTVTYKWFRY [CP, scrambled control peptide with the same amino acid composition as CSP, reference compound]”, the PP2A activity result with PP2A (AECs from COPD lungs, 48 h) was “failed to increase the PP2A activity”; in the assay with PP2A (COPD lung tissues ex vivo, 10 μM, 72 h), “minimal effect”. Also, the “TRF1, TRF2 and TERT expression in A2Cs” value with A2Cs of uPA^−/− mice (uPA-/- mice, TS) is “no significant change”. Besides, the “cilia length and number of ciliated cells” value in assay [1] (nL AECs + TSE/CSE) was “failed to respond”.

“FTTFTVT (listed as Homo sapiens) [CSP7, heptapeptide fragment of the caveolin-1 scaffolding domain peptide CSP]”: the PP2A activity result in the assay on PP2A (AECs from COPD lungs, 48 h) is given as “increased activity of PP2AC; also recorded: significantly improved”. In the assay with A2Cs of uPA^−/− mice (uPA-/- mice, 8×BLM PF), the “p53, ACp53, S15p53, apoptosis, senescence, PAI-1, SIAH1/2, TRF1, TRF2, PNUTS, TERT (Western blot)” value is “minimal effect”; the “telomerase enzyme activity (trapeze)” value is “failed to restore”; the “telomere length (qPCR)” value is “failed to restore telomere length”. In the assay with A2Cs of uPA^−/− mice (uPA-/- mice, 20 weeks TS), the “telomere shortening (qPCR)” value is on record as “failed to respond to CSP7 treatment”. In addition, in the assay with A2Cs of uPA^−/− mice (uPA-/- mice, 20 weeks smoke or repeated BLM, vs CP), the telomere shortening result is on record as “did not show significant difference in telomere shortening”. In the assay with A2Cs of uPA^−/− mice (uPA-/- mice, TS), the “IHC of lung sections for TRF1” value is recorded as “minimal inhibition”; the “TRF1, TRF2 and TERT expression in A2Cs” value is “no significant change”; the “p53 modification/induction, active caspase-3, β-galactosidase (Western blot)” value is recorded as “failed to inhibit post-translational modification or induction of p53, active caspase-3 or β-galactosidase”; the telomerase activity entry is “inability of CSP7 to reverse telomere shortening or improve telomerase activity”. In addition, in the assay with A2Cs of uPA^−/− mice (uPA-/- mice, smoke or BLM), the “activation of p53, caspase-3, β-galactosidase (Western blot)” value is recorded as “failed to inhibit activation of p53, caspase-3 as well as β-galactosidase” and the “telomerase enzyme activity (trapeze)” value is recorded as “did not restore the telomerase enzyme activity”. In addition, in the assay with A2Cs of uPA^−/− mice (uPA-/- mice, smoke or BLM, CSP7 vs CP groups), the “TRF1, TRF2 and TERT expression” value is “no significant change”. In the assay on A2Cs of uPA^−/− mice (uPA-deficient mice, TS- and 8×BLM-induced lung injury), the “p53-induced PAI-1 expression or telomere dysfunction” value is on record as “failed to suppress p53-induced PAI-1 expression or telomere dysfunction”. Further, in assay [1] (AECs + CSE), the “acetylated alpha-tubulin (immunofluorescence)” value is “improved; also recorded: reversed with CSP7 treatment”. In assay [1] (bronchial epithelial cells), the “TS-induced MUC5A gene expression” value was “inhibited TS-induced MUC5A gene expression”. Also, in assay [1] (nL AECs + TSE), the Caveolin1 expression entry is on record as “reversed by CSP7”; the “MUC5AC, HDAC6, FOXA3, SPDEF and FOXA2 mRNA (qPCR)” value is “reversed by CSP7 treatment”; the “autophagy protein markers (Western blot)” value is given as “reversed by CSP7”. Also, in assay [1] (nL AECs + TSE/CSE), the “cilia length and number of ciliated cells” value is “significantly improved; also recorded: significantly reversed”; the “co-localization of MUC5AC/HDAC6 and Ac-Tubulin/LC3” value was “reversal of the co-localization; also recorded: inhibited”. Further, in assay [1] (nL AECs + TSE/CSE 48 h), the “MUC5AC, HDAC6, FOXA3, SPDEF, CAV1, p53, PAI-1, LC3, FOXA2, Ac-Tub proteins (Western blot)” value is reported as “reversed with CSP7 treatment”.
